Laboratory results as given in article PMC7139703, “Thiopurine Derivative-Induced Fpg/Nei DNA Glycosylase Inhibition: Structural, Dynamic and Functional Insights” (International Journal of Molecular Sciences, 2020).

What was measured:
LlFpg/DNA complex C1 = molecular target: T1, LlFpg/DNA complex C1 (Lactococcus lactis subsp. cremoris, UniProt P42371); assay: EMSA, Fpg DNA binding to 14-mer [THF:C] duplex, complex C1 (lesion recognition complex, Fpg/DNA 1/1); settings: pre-incubation of Fpg 20 min at 4 °C; micromolar to millimolar inhibitor
T1 construct: made in house; host or cells: E. coli BH540 (fpg defective)
T1 sequence (P42371 2-273, one chain of several): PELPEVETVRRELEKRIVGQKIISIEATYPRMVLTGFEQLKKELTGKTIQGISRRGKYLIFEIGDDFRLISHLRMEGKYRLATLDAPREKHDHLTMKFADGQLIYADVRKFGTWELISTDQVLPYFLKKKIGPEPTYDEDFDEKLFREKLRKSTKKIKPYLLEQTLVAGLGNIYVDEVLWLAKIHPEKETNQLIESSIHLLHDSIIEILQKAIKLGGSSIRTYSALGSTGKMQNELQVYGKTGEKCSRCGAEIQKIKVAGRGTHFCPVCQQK

mvNei1 = molecular target: T2, mvNei1 (Acanthamoeba polyphaga mimivirus, UniProt Q5UQ00); assay: EMSA, mvNei1 DNA binding to THF-containing DNA duplex; settings: Figure 4
T2 construct: 6His (C); made in house; host or cells: E. coli Rosetta2 (DE3)
T2 sequence (Q5UQ00 whole entry): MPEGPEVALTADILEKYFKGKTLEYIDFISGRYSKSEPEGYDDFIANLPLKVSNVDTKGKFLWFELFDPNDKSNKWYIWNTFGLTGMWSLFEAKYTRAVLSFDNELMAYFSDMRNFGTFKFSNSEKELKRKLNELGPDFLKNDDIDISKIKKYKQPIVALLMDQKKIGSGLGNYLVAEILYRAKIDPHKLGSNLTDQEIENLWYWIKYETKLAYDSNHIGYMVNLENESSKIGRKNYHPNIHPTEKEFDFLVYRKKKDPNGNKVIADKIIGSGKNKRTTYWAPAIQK
Protocol: Figure 4 Comparative analysis of the effect of 2TX and TXn on Fpg/Nei DNA glycosylases. Enzyme activities were measured as described in the Figure 1 legend using 0.1 nM of a 5′-[^32P]-24-mer DNA duplex containing either an 8-oxoG opposite C for LlFpg or a […] (DHU) opposite G for hNeil1 and mvNei1. The DNA probe was incubated with the indicated protein concentration and 0.2 mM TXn compounds in the presence or absence of 1 mM dithiothreitol (DTT) and TCEP (a representative experiment is illustrated by the upper histograms). […]
The DNA binding activity was measured using EMSA [37]. […] After electrophoresis, the gels were dried and exposed overnight for autoradiography using a Typhoon imager and quantified with ImageQuant software. To evaluate the inhibitor effect of 2TX/TXn on the DNA binding activity of each Fpg/Nei enzyme, we first determined the experimental conditions required to bind 50% of the DNA probes without an inhibitor in the presence of 8% DMSO (limiting enzyme concentration). […] This effect was determined by the addition of the thio-compound in the pre-equilibrium mixture of the enzyme and DNA probe (30 min) and incubated for an additional 30 min at 4 °C. For the best inhibitors of Fpg, a dose-response curve was established from at least three independent experiments and the IC50 was determined (IC50^B, Table 1).

O=c1[nH]c(=S)[nH]c2nc[nH]c12 [Compound 2TX, 2-thioxanthine, reference compound]
Fpg ability to bind DNA after pre-incubation with inhibitor (LlFpg/DNA complex C1): completely abolished

O=c1[nH]c(=S)[nH]c2[nH]c(=S)[nH]c12 [TX19]
effect on mvNei1 DNA binding activity (mvNei1): apparent inhibitory effects
